pIC50: −log10 of the molar value. Where a name gives a salt, the structure may show the parent alone. Read-outs that look alike come from different tables or passages of the source.
Experiments:
CCR3 = molecular target: T1, CCR3 (Homo sapiens, UniProt P51677); assay: Effect on intracellular calcium concentration in eosinophils upon CCL11 stimulation; type: cell-based; settings: peripheral blood eosinophils of healthy subject, agonist CCL11 1.0 nmol/L, compound 3 min before stimulation, Fura-2 AM; read-out: IC50 (50% suppression of the increase in the intracellular calcium concentration)
T1 construct: Eosinophils separated from peripheral blood of healthy subject; endogenous in cells; host or cells: eosinophils separated from peripheral blood of healthy subject
T1 sequence (P51677 1-355): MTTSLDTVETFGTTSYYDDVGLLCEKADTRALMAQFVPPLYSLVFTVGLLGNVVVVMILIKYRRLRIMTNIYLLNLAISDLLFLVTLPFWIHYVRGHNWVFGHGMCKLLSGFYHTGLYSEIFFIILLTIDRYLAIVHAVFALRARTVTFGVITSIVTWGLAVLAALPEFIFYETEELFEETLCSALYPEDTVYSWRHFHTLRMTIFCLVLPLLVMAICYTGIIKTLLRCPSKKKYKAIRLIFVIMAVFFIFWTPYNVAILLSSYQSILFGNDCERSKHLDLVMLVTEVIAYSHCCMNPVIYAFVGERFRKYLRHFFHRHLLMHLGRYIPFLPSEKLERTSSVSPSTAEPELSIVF
Method: Effect on Intracellular Calcium Concentration
The effect of the compound of the present invention on intracellular calcium mobilization in peripheral blood eosinophils of healthy subject upon CCL11 stimulation was examined by the following method.
Eosinophils separated from peripheral blood of healthy subject were suspended in 0.5% bovine serum albumin-containing phosphate buffered saline, and incubated at 37° C. for 45 min in the presence of 5 μmol/L of Fura-2 AM (manufactured by DOJINDO LABORATORIES).
After incubation, the cells were washed 3 times with a measurement buffer (10 mmol/L HEPES, and 0.5% bovine serum albumin-containing hanks' balanced salt solution) to remove Fura-2 AM that was not incorporated into the cells.
Finally, the cells were adjusted to 1×10^6 cells/mL with the measurement buffer and preserved in a dark place until measurement. The intracellular calcium was measured using FDSS3000 manufactured by Hamamatsu Photonics K.K. In other words, the cell suspension (0.1 mL) loaded with Fura-2 AM was placed in a 96 well plate for measurement, the fluorescence intensity to the excitation light at wavelengths 340 nm and 380 nm was measured by FDSS3000, the ratio of the fluorescence intensity to the excitation light at these two wavelengths was determined, based on which the intracellular calcium concentration was calculated. As the agonist, used was CCL11 (1.0 nmol/L), which is a CCR3 selective ligand, and the antagonistic activity was determined as 50% suppression rate (IC50 value) of the increase in the intracellular calcium concentration, when eosinophils were treated with various concentrations of the compound of the present invention at 3 min before agonist stimulation.

[1] = tested on: mouse ovalbumin (OVA) induced allergic and biphasic ear edema; assay: Antigen (OVA) induced allergic and biphasic ear edema model; type: in vivo; settings: male BALB/c mice, oral once a day from 2 days before induction, 3 or 10 mg/kg tested
Method: 3: Effect on Antigen Induced Allergic and Biphasic Ear Edema Model
The in vivo effect of the compound of the present invention was examined using a mouse ovalbumin (OVA) induced allergic and biphasic ear edema model. The model was prepared according to the method of Sugawara et al. (Allergy & Clinical Immunology International, Supplement No. 2, P 785, 2000). In other words, male BALB/c mice were immunized by intraperitoneal injection with 10 μg of OVA and 1 mg of aluminum hydroxide gel (Alum). At 14 days after immunization, OVA (5 μg) were subcutaneously injected to the both ears of the mouse, whereby ear edema was induced. The thickness of the ears was measured using a dial sickness gauge immediately before subcutaneous injection and 1 and 24 hrs after subcutaneous injection of OVA. The compound of the present invention was suspended in a vehicle, 0.5% hydroxypropylmethyl cellulose solution, and orally administered at 3 mg/kg or 10 mg/kg once a day using an orally gavage needle from 2 days before ear edema induction.

[2] = ear thickness 1 hr after OVA, read-out: Dose that showed a significant suppressive action vs vehicle, Immediate phase
[3] = ear thickness 24 hrs after OVA, read-out: Dose that showed a significant suppressive action vs vehicle, Late phase

| SMILES | pIC50 (CCR3) | minimal effective dose [1, 2] | minimal effective dose [1, 3] |
| --- | --- | --- | --- |
| NC(=O)c1csc(SCCCC(=O)NC[C@H]2CN(Cc3ccc(Cl)c(Cl)c3)CCO2)n1 [Example 55, (2S)-4-(4-carbamoylthiazol-2-ylthio)-N-{[4-(3,4-dichlorobenzyl)morpholin-2-yl]methyl}butyramide hydrochloride] | 8.96 | – | – |
| NC(=O)c1csc(SCC(=O)NC[C@H]2CN(Cc3ccc(F)c(Cl)c3)CCO2)n1 [Example 112, (2S)-(4-carbamoylthiazol-2-ylthio)-N-{[4-(3-chloro-4-fluorobenzyl)morpholin-2-yl]methyl}acetamide] | 9.05 | – | – |
| NC(=O)CNC(=O)c1csc(SCC(=O)NC[C@H]2CN(Cc3ccc(F)c(F)c3)CCO2)n1 [Example 115, (2S)-[4-(2-amino-2-oxoethyl)aminocarbonylthiazol-2-ylthio]-N-{[4-(3,4-difluorobenzyl)morpholin-2-yl]methyl}acetamide] | 8.59 | – | – |
| NC(=O)CNC(=O)c1ccc(SCC(=O)NC[C@H]2CN(Cc3ccc(Cl)c(Cl)c3)CCO2)cc1 [Example 40, (2S)-{4-[(2-amino-2-oxoethyl)aminocarbonyl]phenylthio}-N-{[4-(3,4-dichlorobenzyl)morpholin-2-yl]methyl}acetamide] | 8.70 | 3 mg/kg | 3 mg/kg |
| Cc1sc(SCC(=O)NC[C@H]2CN(Cc3ccc(Cl)c(Cl)c3)CCO2)nc1C(N)=O [Example 110, (2S)-(4-carbamoyl-5-methylthiazol-2-ylthio)-N-{[4-(3,4-dichlorobenzyl)morpholin-2-yl]methyl}acetamide] | 8.82 | – | – |
| Cc1sc(SCC(=O)NC[C@H]2CN(Cc3ccc(Cl)c(Cl)c3)CCO2)nc1C(=O)O [Example 109, (2S)-(4-carboxy-5-methylthiazol-2-ylthio)-N-{[4-(3,4-dichlorobenzyl)morpholin-2-yl]methyl}acetamide] | 7.65 | – | – |
| NC(=O)Cc1csc(SCC(=O)NC[C@H]2CN(Cc3ccc(F)cc3)CCO2)n1 [Example 107, (2S)-[4-(carbamoylmethyl)thiazol-2-ylthio]-N-{[4-(4-fluorobenzyl)morpholin-2-yl]methyl}acetamide] | 8.60 | – | – |
| O=C(CSc1nc2cccnc2s1)NC[C@H]1CN(Cc2ccc(Cl)c(Cl)c2)CCO1 [Example 64, (2S)-N-{[4-(3,4-dichlorobenzyl)morpholin-2-yl]methyl}-([1,3]thiazolo[5,4-b]pyridin-2-ylthio)acetamide] | 9.52 | 10 mg/kg | 3 mg/kg |
| NC(=O)/C=C/c1csc(SCC(=O)NC[C@H]2CN(Cc3ccc(Cl)c(Cl)c3)CCO2)n1 [Example 71, (2S)-(E)-[4-(2-carbamoylethen-1-yl)thiazol-2-ylthio]-N-{[4-(3,4-dichlorobenzyl)morpholin-2-yl]methyl}acetamide] | 9.30 | – | – |
| Nc1nnc(SCC(=O)NC[C@H]2CN(Cc3cccc(Cl)c3)CCO2)s1 [Example 123, (2S)-(5-amino-1,3,4-thiadiazol-2-ylthio)-N-{[4-(3-chlorobenzyl)morpholin-2-yl]methyl}acetamide] | 8.59 | 10 mg/kg | 10 mg/kg |
| CC(=O)Nc1nnc(SCC(=O)NC[C@H]2CN(Cc3ccc(Cl)c(Cl)c3)CCO2)s1 [Example 53, (2S)-(5-acetamino-1,3,4-thiadiazol-2-ylthio)-N-{[4-(3,4-dichlorobenzyl)morpholin-2-yl]methyl}acetamide] | 8.28 | 3 mg/kg | 3 mg/kg |
| O=C(O)CCNC(=O)c1csc(SCC(=O)NC[C@H]2CN(Cc3ccc(Cl)c(Cl)c3)CCO2)n1 [Example 46, (2S)-{4-[(2-carboxyethyl)aminocarbonyl]thiazol-2-ylthio}-N-{[4-(3,4-dichlorobenzyl)morpholin-2-yl]methyl}acetamide hydrochloride] | 8.51 | 10 mg/kg | 10 mg/kg |
| NC(=O)Cc1csc(SCC(=O)NC[C@H]2CN(Cc3ccc(F)c(F)c3)CCO2)n1 [Example 79, (2S)-[4-(carbamoylmethyl)thiazol-2-ylthio]-N-{[4-(3,4-difluorobenzyl)morpholin-2-yl]methyl}acetamide] | 9.05 | – | – |
| O=C(CSc1nc(-c2nnn[nH]2)cs1)NC[C@H]1CN(Cc2ccc(Cl)c(Cl)c2)CCO1 [Example 59, (2S)-N-{[4-(3,4-dichlorobenzyl)morpholin-2-yl]methyl}-[4-(1H-tetrazol-5-yl)thiazol-2-ylthio]acetamide] | 8.68 | – | – |

Continued, in another order:

| pIC50 (CCR3) | SMILES | minimal effective dose [1, 2] | minimal effective dose [1, 3] |
| --- | --- | --- | --- |
| 7.41 | O=C(CCCS(=O)(=O)C1CCCC1)NC[C@H]1CN(Cc2ccc(F)c(Cl)c2)CCO1 [Example 232, (2S)-4-(cyclopentanesulfonyl)-N-{[4-(3-chloro-4-fluorobenzyl)morpholin-2-yl]methyl}butyramide] | – | – |
| 8.62 | NC(=O)c1cncc(SCC(=O)NC[C@H]2CN(Cc3ccc(Cl)c(Cl)c3)CCO2)c1 [Example 207, (2S)-(3-carbamoylpyridin-5-ylthio)-N-{[4-(3,4-dichlorobenzyl)morpholin-2-yl]methyl}acetamide] | – | – |
| 8.60 | O=C(CSc1ncccn1)NC[C@H]1CN(Cc2ccc(Cl)c(Cl)c2)CCO1 [Example 146, (2S)-N-{[4-(3,4-dichlorobenzyl)morpholin-2-yl]methyl}-(pyrimidin-2-ylthio)acetamide] | 3 mg/kg | 3 mg/kg |
| 8.44 | Nc1nnc(SCC(=O)NC[C@H]2CN(Cc3ccc(F)c(F)c3)CCO2)s1 [Example 125, (2S)-(5-amino-1,3,4-thiadiazol-2-ylthio)-N-{[4-(3,4-difluorobenzyl)morpholin-2-yl]methyl}acetamide] | 10 mg/kg | 3 mg/kg |
| 10.00 | NC(=O)Cc1cncc(SCC(=O)NC[C@H]2CN(Cc3ccc(Cl)c(Cl)c3)CCO2)n1 [Example 223, (2S)-[6-(carbamoylmethyl)pyrazin-2-ylthio]-N-{[4-(3,4-dichlorobenzyl)morpholin-2-yl]methyl}acetamide] | – | – |
| 8.41 | O=C(CSc1ccc(=O)[nH]n1)NC[C@H]1CN(Cc2ccc(F)c(F)c2)CCO1 [Example 198, (2S)-N-{[4-(3,4-difluorobenzyl)morpholin-2-yl]methyl}-(6-oxo-1,6-dihydropyridazin-3-ylthio)acetamide] | 10 mg/kg | 10 mg/kg |
| 7.79 | CC(=O)c1cc2cc(SCC(=O)NC[C@H]3CN(Cc4ccc(Cl)c(Cl)c4)CCO3)ccc2oc1=O [Example 174, (2S)-(3-acetyl-2-oxo-2H-chromen-6-ylthio)-N-{[4-(3,4-dichlorobenzyl)morpholin-2-yl]methyl}acetamide] | – | – |

Source: US7935700B2, “Morpholine compound” (Mitsubishi Tanabe Pharma Corporation, priority 2004, dated 2011)
